Experiments:
rat [1] = conditions: Subchronic oral toxicity in rodents, sprague dawley, Gavage/Intubation, dose end: 91 day, group: systemic
rat [2] = conditions: Sub-acute repeat dose toxicity; Oral; Gavage/Intubation; dose end: 4 day; group: systemic; systemic / clinical chemistry / [other] / [other] + systemic / clinical chemistry / 5' nucleotidase / 5' nucleotidase + systemic / clinical …
rat [3] = conditions: Sub-acute repeat dose toxicity, Oral, Gavage/Intubation, dose end: 14 day, group: systemic
rat [4] = conditions: Sub-acute repeat dose toxicity; Oral; Gavage/Intubation; dose end: 5 day; group: systemic; systemic / in life observation / food consumption / food consumption
rat [5] = conditions: Sub-acute repeat dose toxicity, Oral, Gavage/Intubation, dose end: 12 day, group: systemic
rat [6] = conditions: Sub-acute repeat dose toxicity, Oral, Gavage/Intubation, dose end: 8 day, group: systemic
rat [7] = conditions: Sub-acute repeat dose toxicity, Oral, Gavage/Intubation, dose end: 5 day, group: systemic
dog = conditions: Subchronic oral toxicity in nonrodent, beagle, Gavage/Intubation, dose end: 93 day
rat [8] = conditions: Subchronic oral toxicity in rodents, fischer, Gavage/Intubation, dose end: 13 week, group: systemic
mouse [9] = conditions: Subchronic oral toxicity in rodents, b6c3f1, Gavage/Intubation, dose end: 13 week, group: systemic
rat [10] = conditions: Combined chronic toxicity/carcinogenicity; fischer; Oral; Gavage/Intubation; dose end: 2 year; group: systemic; systemic / in life observation / body weight / body weight
mouse [11] = conditions: Combined chronic toxicity/carcinogenicity, b6c3f1, Oral, Gavage/Intubation, dose end: 2 year, group: systemic
rat [12] = conditions: Subchronic oral toxicity in rodents, fischer, Gavage/Intubation, dose end: 13 week, group: systemic; remark: listed apart in the source
mouse [13] = conditions: Subchronic oral toxicity in rodents, b6c3f1, Gavage/Intubation, dose end: 13 week, group: systemic, systemic / in life observation / clinical signs / fur (altered appearance) + systemic / in life observation / clinical signs / reduced …
rat [14] = conditions: Combined chronic toxicity/carcinogenicity, fischer, Oral, Gavage/Intubation, dose end: 103 week, group: systemic
mouse [15] = conditions: Combined chronic toxicity/carcinogenicity, b6c3f1, Oral, Gavage/Intubation, dose end: 103 week, group: systemic
[16] = systemic / in life observation / clinical signs / abnormal feces + systemic / in life observation / clinical signs / fur (altered appearance…
[17] = systemic / in life observation / mortality / mortality + systemic / organ weight / testes / absolute + systemic / pathology microscopic / …
[18] = systemic / clinical chemistry / 5' nucleotidase / 5' nucleotidase + systemic / clinical chemistry / glucose / glucose + systemic / clinical …
[19] = systemic / clinical chemistry / potassium / potassium
[20] = systemic / clinical chemistry / albumin / albumin + systemic / clinical chemistry / globulins / globulins + systemic / clinical chemistry / …
[21] = systemic / hematology / neutrophils / neutrophils + systemic / pathology microscopic / intestine small / inflammation + systemic / pathology…
[22] = systemic / hematology / neutrophils / neutrophils
[23] = systemic / hematology / neutrophils / neutrophils + systemic / pathology microscopic / mesentery / inflammation + systemic / pathology …
[24] = group: maternal, reproductive / reproductive performance / estrous cycle / absent corpora lutea
[25] = group: systemic, systemic / organ weight / testes / absolute + systemic / pathology microscopic / testes / degeneration
[26] = group: systemic, systemic / organ weight / testes / absolute + systemic / pathology microscopic / testes / degeneration + systemic / in life observation / …
[27] = systemic / in life observation / body weight / body weight
[28] = systemic / in life observation / body weight / body weight + systemic / in life observation / clinical signs / alopecia + systemic / in life…
[29] = systemic / pathology microscopic / kidney / nephropathy
[30] = systemic / in life observation / body weight / body weight + systemic / pathology microscopic / kidney / nephropathy
[31] = systemic / in life observation / body weight / body weight + systemic / pathology microscopic / kidney / nephropathy + systemic / pathology …
[32] = systemic / in life observation / body weight / body weight + systemic / in life observation / clinical signs / fur (altered appearance) + …
[33] = systemic / pathology microscopic / kidney / casts + systemic / pathology microscopic / kidney / regeneration
[34] = systemic / pathology microscopic / kidney / hyperplasia + systemic / pathology microscopic / kidney / mineralization
[35] = systemic / pathology microscopic / kidney / hyperplasia + systemic / pathology microscopic / kidney / mineralization + systemic / pathology …
[36] = systemic / pathology microscopic / liver / cytomegaly + systemic / pathology microscopic / liver / multinucleated

For `CCc1nn(C2CCCCC2)c2cc(C3(C#N)CCC(C(=O)O)CC3)ccc12` (stereo not drawn), the LEL (rat [1]; [16]) was 1 mg/kg/day, the NEL (rat [1]; [16]) was < 1 mg/kg/day and the LOAEL (rat [1]; [17]) was > 15 mg/kg/day. For the same molecule, the NOAEL (rat [1]; [17]) was ≥ 15 mg/kg/day, the LEL (rat [2]) was 30 mg/kg/day and the LOAEL (rat [2]) was > 30 mg/kg/day. The NEL (rat [2]) was < 30 mg/kg/day, the NOAEL (rat [2]) was ≥ 30 mg/kg/day and the LOAEL (rat [3]; [18]) was > 60 mg/kg/day. The NOAEL (rat [3]; [18]) was ≥ 60 mg/kg/day, the LEL (rat [3]; [19]) was 3 mg/kg/day and the NEL (rat [3]; [19]) was < 3 mg/kg/day. The LEL (rat [4]) was 1 mg/kg/day, the LOAEL (rat [4]) was > 10 mg/kg/day and the NEL (rat [4]) was < 1 mg/kg/day. The NOAEL (rat [4]) was ≥ 10 mg/kg/day, the LOAEL (rat [5]; [20]) was > 30 mg/kg/day and the NOAEL (rat [5]; [20]) was ≥ 30 mg/kg/day. For the same molecule, the LEL (rat [5]; [21]) was 15 mg/kg/day, the NEL (rat [5]; [21]) was < 15 mg/kg/day and the LOAEL (rat [6]; [20]) was > 30 mg/kg/day. For the same molecule, the NOAEL (rat [6]; [20]) was ≥ 30 mg/kg/day, the LEL (rat [6]; [22]) was 15 mg/kg/day and the NEL (rat [6]; [22]) was < 15 mg/kg/day. For the same molecule, the LOAEL (rat [7]; [20]) was > 30 mg/kg/day, the NOAEL (rat [7]; [20]) was ≥ 30 mg/kg/day and the LEL (rat [7]; [23]) was 15 mg/kg/day. The NEL (rat [7]; [23]) was < 15 mg/kg/day, the LEL (dog; [24]) was 1 mg/kg/day and the LOAEL (dog; [24]) was > 10 mg/kg/day. The NEL (dog; [24]) was < 1 mg/kg/day, the NOAEL (dog; [24]) was ≥ 10 mg/kg/day and the LEL (dog; [25]) was 1 mg/kg/day. For the same molecule, the NEL (dog; [25]) was < 1 mg/kg/day, the LOAEL (dog; [26]) was > 10 mg/kg/day and the NOAEL (dog; [26]) was ≥ 10 mg/kg/day.

Molecule `CCCCCCc1ccc(O)cc1O` [4-Hexylresorcinol] has an LEL (rat [8]; [27]) of 125 mg/kg/day, an LOAEL (rat [8]; [27]) of 125 mg/kg/day and an NEL (rat [8]; [28]) of 62.5 mg/kg/day. The NOAEL (rat [8]; [28]) was 62.5 mg/kg/day, the LEL (mouse [9]; [29]) was 125 mg/kg/day and the LOAEL (mouse [9]; [29]) was 250 mg/kg/day. For the same molecule, the NEL (mouse [9]; systemic / pathology microscopic / kidney / nephropathy + systemic / in life observation / body weight / body weight + systemic / in life …) was 62.5 mg/kg/day, the NOAEL (mouse [9]; systemic / pathology microscopic / kidney / nephropathy + systemic / in life observation / mortality / mortality) was 125 mg/kg/day and the LEL (rat [10]) was 125 mg/kg/day. It also gave an LOAEL (rat [10]) of 125 mg/kg/day, an NEL (rat [10]) of 62.5 mg/kg/day and an NOAEL (rat [10]) of 62.5 mg/kg/day. The LOAEL (mouse [11]; [30]) was 62.5 mg/kg/day, the NOAEL (mouse [11]; [30]) was < 62.5 mg/kg/day and the LEL (mouse [11]; [31]) was 62.5 mg/kg/day. For the same molecule, the NEL (mouse [11]; [31]) was < 62.5 mg/kg/day.

In the case of `C=C(C)[C@H]1CC=C(C)CC1` [D-Limonene], the LOAEL (rat [12]; [32]) is reported as > 2400 mg/kg/day, the NOAEL (rat [12]; [32]) is reported as ≥ 2400 mg/kg/day and the LEL (rat [12]; [33]) is reported as 150 mg/kg/day. For the same molecule, the NEL (rat [12]; [33]) was < 150 mg/kg/day, the LEL (mouse [13]) was 1000 mg/kg/day and the LOAEL (mouse [13]) was > 2000 mg/kg/day. For the same molecule, the NEL (mouse [13]) was 500 mg/kg/day, the NOAEL (mouse [13]) was ≥ 2000 mg/kg/day and the LOAEL (rat [14]; [34]) was 75 mg/kg/day. The NOAEL (rat [14]; [34]) was < 75 mg/kg/day, the LEL (rat [14]; [35]) was 75 mg/kg/day and the NEL (rat [14]; [35]) was < 75 mg/kg/day. It also gave an LOAEL (mouse [15]; [27]) of 1000 mg/kg/day, an NOAEL (mouse [15]; [27]) of 500 mg/kg/day and an LEL (mouse [15]; [36]) of 500 mg/kg/day. For the same molecule, the NEL (mouse [15]; [36]) was 250 mg/kg/day.
